Toxic doses and inconclusive results are not listed.

The subject of this assay is BDF1 mice, P388/ADR leukemia ip, median survival T/C. Put plainly: NCI In Vivo Anticancer Drug Screen. Data for tumor model P388 Leukemia resistant to Adriamycin; NSC 123127, Developed at Scr 06 and 41 (intraperitoneal) in B6D2F1 (BDF1) mice. Particulars: endpoint: median survival time, higher = longer survival. The protocol:
The antitumor activity of compounds was measured in mice bearing transplantable tumors. Survival or tumor size were measured and the results are expressed as the measurement made in the treated group (T) divided by the measurement made in the vehicle treated control group (C). The tumor model used in this assay is P388 Leukemia resistant to Adriamycin; NSC 123127, Developed at Scr 06 and 41 (intraperitoneal) in B6D2F1 (BDF1) mice

Setting [1] is: dose: 1.08 mg/kg/injection, schedule: Q04DX003 (ip), vehicle: water.
[2] abbreviates: dose: 1.8 mg/kg/injection, schedule: Q04DX003 (ip), vehicle: water.
[3] abbreviates: dose: 18.0 mg/kg/injection, schedule: Q04DX003 (ip), vehicle: saline.

Turning to `COC(=O)[C@@H]1c2cc3c(c(O)c2[C@@H](OC2OC(C)C(OC)C(C)(OC)C2OC)C[C@]1(C)O)C(=O)c1c(O)cc2c(c1C3=O)O[C@H]1O[C@]2(C)[C@H](O)[C@@H](N(C)C)[C@@H]1O` (some centres undefined), the T/C by setting is: (dose: 0.65 mg/kg/injection, schedule: Q04DX003 (ip), vehicle: water) 89 % of control; under setting [1], 96 % of control; (dose: 1.3 mg/kg/injection, schedule: Q04DX003 (ip), vehicle: water) 103 % of control; under setting [2], 96 % of control; (dose: 2.16 mg/kg/injection, schedule: Q04DX003 (ip), vehicle: water) 91 % of control.
Consider `O=CC(NC(=O)N(CCCl)N=O)C(O)C(O)C(O)CO` (centres undefined), for which the T/C was 240 % of control (dose: 6.48 mg/kg/injection, schedule: Q04DX003 (ip), vehicle: saline); 553 % of control (dose: 10.8 mg/kg/injection, schedule: Q04DX003 (ip), vehicle: saline); 120 % of control under setting [3].
Regarding `N[C@H](C(=O)O)[C@@H]1CC(Cl)=NO1`, the T/C (dose: 36.0 mg/kg/injection, schedule: Q04DX003 (ip), vehicle: saline) was 122 % of control.
Consider `O=C1c2ccccc2C(=O)c2c(NCCNCCO)ccc(NCCNCCO)c21`, for which the T/C by setting is: (dose: 13.0 mg/kg/injection, schedule: Q04DX003 (ip), vehicle: saline + alcohol) 105 % of control; (dose: 21.6 mg/kg/injection, schedule: Q04DX003 (ip), vehicle: saline + alcohol) 104 % of control; (dose: 36.0 mg/kg/injection, schedule: Q04DX003 (ip), vehicle: saline + alcohol) 98 % of control.
`CC[C@](O)(C(=O)O)c1cc2n(c(=O)c1CO)Cc1cc3ccccc3nc1-2`: the T/C under setting [3] was 183 % of control; the T/C (dose: 30.0 mg/kg/injection, schedule: Q04DX003 (ip), vehicle: saline) was 209 % of control; the T/C (dose: 50.0 mg/kg/injection, schedule: Q04DX003 (ip), vehicle: saline) is 206 % of control.
As for `NC(CSC(c1ccccc1)(c1ccccc1)c1ccccc1)C(=O)O` (centres undefined), the T/C by setting is: (dose: 24.0 mg/kg/injection, schedule: Q01DX009 (ip), vehicle: other) 100 % of control; (dose: 40.0 mg/kg/injection, schedule: Q01DX009 (ip), vehicle: other) 106 % of control.
Turning to `CC[C@]1(O)C[C@H]2CN(CCc3c([nH]c4ccccc34)[C@@](C(=O)OC)(c3cc4c(cc3OC)N(C=O)[C@H]3[C@@](O)(C(=O)OC)[C@H](OC(C)=O)[C@]5(CC)C=CCN6CC[C@]43[C@@H]65)C2)C1`, the T/C (dose: 0.5 mg/kg/injection, schedule: Q04DX003 (ip), vehicle: saline) is 92 % of control; the T/C (dose: 0.65 mg/kg/injection, schedule: Q04DX003 (ip), vehicle: saline) was 111 % of control; the T/C (dose: 1.0 mg/kg/injection, schedule: Q04DX003 (ip), vehicle: saline) was 92 % of control; the T/C (dose: 1.8 mg/kg/injection, schedule: Q04DX003 (ip), vehicle: saline) was 95 % of control; the T/C (dose: 3.0 mg/kg/injection, schedule: Q04DX003 (ip), vehicle: saline) was 87 % of control; the T/C (dose: 389.0 micrograms/kg/injection, schedule: Q04DX003 (ip), vehicle: saline) was 109 % of control. The T/C was 113 % of control (dose: 432.0 micrograms/kg/injection, schedule: Q04DX003 (ip), vehicle: saline); 112 % of control (dose: 648.0 micrograms/kg/injection, schedule: Q04DX003 (ip), vehicle: saline); 107 % of control (dose: 720.0 micrograms/kg/injection, schedule: Q04DX003 (ip), vehicle: saline); 110 % of control (dose: 1080.0 micrograms/kg/injection, schedule: Q04DX003 (ip), vehicle: saline); 101 % of control (dose: 1200.0 micrograms/kg/injection, schedule: Q04DX003 (ip), vehicle: saline); 107 % of control (dose: 1800.0 micrograms/kg/injection, schedule: Q04DX003 (ip), vehicle: saline).
For the compound `CC[C@H]1CN2CCc3cc(OC)c(OC)cc3[C@@H]2C[C@@H]1C[C@H]1NCCc2c1[nH]c1ccc(OC)cc21`, the T/C was 108 % of control (dose: 10.8 mg/kg/injection, schedule: Q04DX003 (ip), vehicle: acid diluted with saline); 107 % of control (dose: 18.0 mg/kg/injection, schedule: Q04DX003 (ip), vehicle: acid diluted with saline); 110 % of control (dose: 30.0 mg/kg/injection, schedule: Q04DX003 (ip), vehicle: acid diluted with saline).
Turning to `COc1cc(NS(C)(=O)=O)ccc1Nc1c2ccccc2nc2ccccc12`, the T/C was 123 % of control (dose: 3.6 mg/kg/injection, schedule: Q04DX003 (ip), vehicle: other); 106 % of control (dose: 5.4 mg/kg/injection, schedule: Q04DX003 (ip), vehicle: clinical formulation); 114 % of control (dose: 9.0 mg/kg/injection, schedule: Q04DX003 (ip), vehicle: clinical formulation).
In the case of `CCN(CC)CCNc1ccc(CO)c2sc3ccccc3c(=O)c12`, the T/C was 93 % of control (dose: 17.3 mg/kg/injection, schedule: Q01DX009 (ip), vehicle: water); 108 % of control (dose: 25.2 mg/kg/injection, schedule: Q01DX009 (ip), vehicle: water); 100 % of control (dose: 28.8 mg/kg/injection, schedule: Q01DX009 (ip), vehicle: water); 117 % of control (dose: 42.0 mg/kg/injection, schedule: Q01DX009 (ip), vehicle: water); 104 % of control (dose: 48.0 mg/kg/injection, schedule: Q01DX009 (ip), vehicle: water); 104 % of control (dose: 70.0 mg/kg/injection, schedule: Q01DX009 (ip), vehicle: water). Further, the T/C (dose: 117.0 mg/kg/injection, schedule: Q01DX009 (ip), vehicle: water) was 88 % of control.
In the case of `COc1cc2c[n+](C)c3c4cc5c(cc4ccc3c2cc1OC)OCO5`, the T/C is, setting by setting: (dose: 28.8 mg/kg/injection, schedule: Q04DX003 (ip), vehicle: Klucel (hydroxypropylcellulose) (HPC)) 123 % of control; (dose: 48.0 mg/kg/injection, schedule: Q04DX003 (ip), vehicle: Klucel (hydroxypropylcellulose) (HPC)) 105 % of control; (dose: 55.0 mg/kg/injection, schedule: Q04DX003 (ip), vehicle: other) 107 % of control; (dose: 80.0 mg/kg/injection, schedule: Q04DX003 (ip), vehicle: Klucel (hydroxypropylcellulose) (HPC)) 124 % of control; (dose: 92.0 mg/kg/injection, schedule: Q04DX003 (ip), vehicle: other) 106 % of control.
Take `Nc1nncs1`: the T/C reads like this: (dose: 173.0 mg/kg/injection, schedule: Q04DX003 (ip), vehicle: other) 199 % of control; (dose: 288.0 mg/kg/injection, schedule: Q04DX003 (ip), vehicle: other) 90 % of control.
`CCCCCCCC(=O)OCC(=O)[C@]1(O)Cc2c(O)c3c(c(O)c2[C@@H](OC2CC(N)C(O)C(C)O2)C1)C(=O)c1c(OC)cccc1C3=O` (some centres undefined): the T/C (dose: 2.88 mg/kg/injection, schedule: Q04DX003 (ip), vehicle: water) is 121 % of control.
For `CC[C@H]1CN2CCc3cc(OC)c(OC)cc3[C@@H]2C[C@@H]1C[C@H]1NCCc2cc(OC)c(OC)cc21`, the T/C is, setting by setting: (dose: 7.78 mg/kg/injection, schedule: Q04DX003 (ip), vehicle: saline) 106 % of control; (dose: 9.0 mg/kg/injection, schedule: Q04DX003 (ip), vehicle: saline) 94 % of control; (dose: 13.0 mg/kg/injection, schedule: Q04DX003 (ip), vehicle: saline) 114 % of control; under setting [3], 100 % of control; (dose: 21.6 mg/kg/injection, schedule: Q04DX003 (ip), vehicle: saline) 106 % of control.
Regarding `CC(=O)C1(O)Cc2c(O)c3c(c(O)c2C(OC2CC(N)C(O)C(C)O2)C1)C(=O)c1ccccc1C3=O` (centres undefined), the T/C runs as follows: (dose: 324.0 micrograms/kg/injection, schedule: Q04DX003 (ip), vehicle: water) 119 % of control; (dose: 540.0 micrograms/kg/injection, schedule: Q04DX003 (ip), vehicle: water) 122 % of control; (dose: 900.0 micrograms/kg/injection, schedule: Q04DX003 (ip), vehicle: water) 122 % of control; (dose: 1500.0 micrograms/kg/injection, schedule: Q04DX003 (ip), vehicle: water) 98 % of control.
For the compound `COc1cccc2c1C(=O)c1c(O)c3c(c(O)c1C2=O)C[C@@](O)(C(=O)CO)C[C@@H]3OC1CC([N+](C)(C)C)C(O)C(C)O1` (some centres undefined), the T/C is 99 % of control (dose: 8.64 mg/kg/injection, schedule: Q04DX003 (ip), vehicle: water) and 99 % of control (dose: 14.4 mg/kg/injection, schedule: Q04DX003 (ip), vehicle: water).
Turning to `CC[C@@]1(O)C[C@H](OC2CC(N(C)C)C(OC3CC(O)C(OC4CC(O)C(O)C(C)O4)C(C)O3)C(C)O2)c2c(cc3c(c2O)C(=O)c2c(O)ccc(O)c2C3=O)[C@H]1C(=O)OC` (some centres undefined), the T/C runs as follows: under setting [1], 106 % of control; under setting [2], 109 % of control; (dose: 3.0 mg/kg/injection, schedule: Q04DX003 (ip), vehicle: water) 120 % of control.

For the origin of these results see PubChem BioAssay AID182 (DTP/NCI, 2004).
